Laboratory results published in US5496947A, “Quinolone carboxylic acid derivatives” (Dong Wha Pharmaceutical Industrial Co., Ltd., priority 1994, dated 1996).
Like-named read-outs stand apart in the source and are kept apart here.

Columns and labels:
[1] = test system: Acinetobacter calcoaceticus; assay: MIC, 2-fold dilution method in micro-well plate, A. calcoaceticus; type: cell-based
[2] = test system: Citrobacter freundii ATCC 8090; assay: MIC, 2-fold dilution method in micro-well plate, C. freundii; type: cell-based; conditions: ATCC8090, read-out: Minimum Inhibitory Concentration
Procedure, shortened: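 Broth 2-fold microdilution; compounds tested as hydrochloride salts in sterile water. Inoculum from overnight BHI broth culture at 37° C., final about (10^5-10^6)/2 cfu/ml per well; MIC read after incubation at 37° C.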

[3] = test system: Enterobacter aerogenes ATCC 13048; assay: MIC, 2-fold dilution method in micro-well plate, E. aerogenes; type: cell-based; conditions: Klebsiella aerogenes
Procedure, shortened: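 Two-fold broth microdilution of hydrochloride salts dissolved in sterile water (10 mg/ml stock). Inoculum from overnight BHI culture at 37° C, about (10^5–10^6)/2 cfu/ml final in well. MIC read after incubation at 37° C.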

[4] = test system: Enterobacter cloacae; assay: MIC, 2-fold dilution method in micro-well plate, E. cloacae; type: cell-based; conditions: read-out: Minimum Inhibitory Concentration
[5] = test system: Escherichia coli ATCC 25922; assay: MIC, 2-fold dilution method in micro-well plate, E. coli; type: cell-based
Procedure, shortened: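 Broth two-fold microdilution of hydrochloride salts in water against E. coli ATCC 25922 grown overnight in BHI at 37° C. Final inoculum about (10^5 -10^6)/2 cfu/ml; after incubation at 37° C, MIC was recorded.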

[6] = test system: Haemophilus influenza ATCC 35056; assay: MIC, 2-fold dilution method in micro-well plate, H. influenzae; type: cell-based; conditions: H. influenzae ATCC35056, 37° C.; read-out: Minimum Inhibitory Concentration
Procedure, shortened: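 MIC by 2-fold broth microdilution; compounds as hydrochloride salts in sterile water (10 mg/ml stock). Overnight BHI culture inoculated at about (10^5-10^6)/2 cfu/ml final; MIC read after cultivation at 37° C.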

[7] = test system: Klebsiella pneumoniae ATCC 13883; assay: MIC, 2-fold dilution method in micro-well plate, K. pneumoniae; type: cell-based
Procedure, shortened: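 Two-fold broth dilution in micro-wells of compound as hydrochloride salt in water. Overnight BHI culture at 37 °C inoculated to about (10^5–10^6)/2 cfu/ml final. MIC read after incubation at 37 °C.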

[8] = test system: Proteus vulgaris ATCC 13315; assay: MIC, 2-fold dilution method in micro-well plate, P. vulgaris; type: cell-based
Procedure, shortened: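 Two-fold broth dilution in micro-well plates; compounds tested as hydrochloride salts in water. Bacteria from overnight BHI broth culture at 37 °C inoculated to about (10^5–10^6)/2 cfu/ml final; MIC read after incubation at 37 °C.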

[9] = test system: Pseudomonas aeruginosa ATCC 27853; assay: MIC, 2-fold dilution method in micro-well plate, P. aeruginosa; type: cell-based; conditions: P. aerugirnosa ATCC27853, 37° C., read-out: Minimum Inhibitory Concentration
Procedure, shortened: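 MIC was recorded after 37° C incubation of bacteria with serial two-fold dilutions of compound. Bacteria came from an overnight 37° C BHI culture; the final inoculum was about (10^5-10^6)/2 cfu/ml. Compounds were tested as hydrochloride salts diluted in sterile water from a 10 mg/ml stock.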

[10] = test system: Salmonella typhimurium ATCC 14028; assay: MIC, 2-fold dilution method in micro-well plate, S. typhimurium; type: cell-based; conditions: Salmonella enterica, read-out: Minimum Inhibitory Concentration
Procedure, shortened: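 Twofold broth microdilution with overnight BHI culture at 37 °C; inoculum about (10^5-10^6)/2 cfu/ml in wells. Compounds tested as hydrochloride salts from 10 mg/ml aqueous stock; MIC read after incubation at 37 °C.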

[11] = test system: Shigella flexneri ATCC 12022; assay: MIC, 2-fold dilution method in micro-well plate, S. flexneri; type: cell-based; conditions: S. flexneri ATCC12022, 37° C., read-out: Minimum Inhibitory Concentration
Procedure, shortened: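 Two-fold broth dilution in microwell plates; compounds as hydrochloride salts in sterile water. Overnight BHI-broth culture at 37 °C used as inoculum, giving about (10^5–10^6)/2 cfu/ml per well. MIC read after cultivation at 37 °C.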

[12] = test system: Shigella sonnei ATCC 25931; assay: MIC, 2-fold dilution method in micro-well plate, S. sonnei; type: cell-based; conditions: S. sonnei ATCC25931, 37° C., read-out: Minimum Inhibitory Concentration
Procedure, shortened: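 Broth microdilution with 2-fold serial dilutions of compounds as hydrochloride salts in water. Overnight BHI culture of S. sonnei at 37° C added to give about (10^5-10^6)/2 cfu/ml per well. MIC read after incubation at 37° C.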

[13] = test system: Serratia marcescens ATCC 8100; assay: MIC, 2-fold dilution method in micro-well plate, S. marcescens; type: cell-based; conditions: S. marcescens ATCC8100, 37° C., read-out: Minimum Inhibitory Concentration
Procedure, shortened: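 Broth microdilution (2-fold series) of hydrochloride salts in water; S. marcescens from overnight BHI culture at 37 °C inoculated to about (10^5-10^6)/2 cfu/ml. MIC read after cultivation at 37 °C.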

[14] = test system: Streptococcus faecalis ATCC 19433; assay: MIC, 2-fold dilution method in micro-well plate, S. faecalis ATCC 19433; type: cell-based; conditions: Enterococcus faecalis; S. faecalis ATCC19433, 37° C.; read-out: Minimum Inhibitory Concentration
Procedure, shortened: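 Broth microdilution (2-fold series) with test compounds as hydrochloride salts in sterile water; overnight BHI culture at 37 °C inoculated to about (10^5-10^6)/2 cfu/ml per well. MIC read after incubation at 37 °C.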

[15] = test system: Streptococcus faecalis ATCC 29212; assay: MIC, 2-fold dilution method in micro-well plate, S. faecalis ATCC 29212; type: cell-based; conditions: Enterococcus faecalis; S. faecalis ATCC29212, 37° C.; read-out: Minimum Inhibitory Concentration
Procedure, shortened: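 Compounds were tested as hydrochloride salts by 2-fold serial dilution in water in micro-well plates. Final inoculum was about (10^5-10^6)/2 cfu/ml from overnight BHI broth culture. MIC was read after culture at 37° C.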

[16] = test system: Streptococcus pneumoniae ATCC 6303; assay: MIC, 2-fold dilution method in micro-well plate, S. pneumoniae; type: cell-based; conditions: S. pneuinoniae ATCC6303, 37° C., read-out: Minimum Inhibitory Concentration
Procedure, shortened: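 MIC by 2-fold serial microdilution of compounds as hydrochloride salts in water, against a BHI-grown overnight culture. Final inoculum was about (10^5–10^6)/2 cfu/ml. Plates were incubated at 37° C before the minimum inhibitory concentration was read.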

[17] = test system: Streptococcus pyrogens ATCC 19615; assay: MIC, 2-fold dilution method in micro-well plate, S. pyrogens; type: cell-based; conditions: S. pyrogenes ATCC19615, 37° C., read-out: Minimum Inhibitory Concentration
Procedure, shortened: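 Inoculum from overnight 37° C brain-heart infusion culture gave roughly (10^5-10^6)/2 cfu/mL per well against two-fold serial dilutions of hydrochloride-salt compound in water. Lowest concentration inhibiting growth after 37° C incubation taken as MIC.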

[18] = Pharmacokinetic properties in ICR mouse, oral and subcutaneous, Bio-Assay (Agar well method); type: in vivo; conditions: 40 mg/kg, average of four tests; for AUC / Cmax / Tmax / bioavailability / half-life: blood; for dose excreted: urine, read-out: Urine Recovery
Method: The pharmacokinetic properties are tested by orally administrating and subcutaneously injecting a test compound and a substance for control to a ICR Mouse with 22 g±10% weight, drawing blood after 10, 20, 30, 45, 60, 90, 120, 150, 180 and […] and analyzed by Bio-Assay (Agar well method).

[19] = LD50, oral, mice; conditions: mouse, in vivo
[20] = E. cloacae ATCC23355 (as in tables), 37° C.
[21] = ATCC25922, read-out: Minimum Inhibitory Concentration
[22] = ATCC13883, read-out: Minimum Inhibitory Concentration
[23] = S. typhisurium ATCC14028, 37° C.
[24] = ATCC8090, read-out: Minimum Inhibitory Concentration
[25] = E. aerogenes ATCC13048, 37° C., read-out: Minimum Inhibitory Concentration
[26] = P. vulgaris ATCC13315, 37° C., read-out: Minimum Inhibitory Concentration

Row | Structure (SMILES) | MIC [2] | MIC [4, 20] | MIC [5, 21] | MIC [6] | MIC [7, 22] | MIC [9] | MIC [10, 23] | MIC [11] | MIC [12] | MIC [13] | MIC [14] | MIC [15] | MIC [16] | MIC [17] | AUC ([18]; sc, S.C) | Cmax ([18]; sc, S.C) | Tmax ([18]; sc, S.C) | half-life ([18]; sc, S.C) | dose excreted ([18]; po, P.O) | dose excreted ([18]; sc, S.C) | further results
1 | CN1CCN(c2nc3c(cc2F)c(=O)c(C(=O)O)cn3-c2ccc(F)cn2)CC1.Cl [Example 13, 1-(5-fluoro-2-pyridyl)-6-fluoro-7-(4-methyl-1-piperazinyl)-1,4-dihydro-4-oxo-1,8-naphthyridine-3-carboxylic acid hydrochloride] | 0.156 µg/mL | 0.313 µg/mL | 0.156 µg/mL | 0.625 µg/mL | 0.625 µg/mL | 1.25 µg/mL | 0.313 µg/mL | 0.156 µg/mL | 0.156 µg/mL | 0.313 µg/mL | 5 µg/mL | 5 µg/mL | 2.5 µg/mL | 5 µg/mL | 55500 ng·h/mL | 8000 ng/mL | 0.81 h | 11.5 h | 19.6% | 30.8% | MIC ([1]; A. calcoaceticus ATCC8090 (as in tables), 37° C., read-out: Minimum Inhibitory Concentration): 0.313 µg/mL; MIC ([3]; ATCC13048, read-out: Minimum Inhibitory Concentration): 0.625 µg/mL; MIC ([8]; ATCC13315, read-out: Minimum Inhibitory Concentration): 0.625 µg/mL; AUC ([18]; po, P.O): 41000 ng·h/mL; Cmax ([18]; po, P.O): 11500 ng/mL; Tmax ([18]; po, P.O): 1.12 h; bioavailability ([18]; po, P.O): 74%; half-life ([18]; po, P.O): 8.07 h; LD50 [19]: ~1000 mg/kg
2 | CN1CCN(c2cc3c(cc2F)c(=O)c(C(=O)O)cn3-c2ccc(F)cn2)CC1.Cl [Example 18, 1-(5-fluoro-2-pyridyl)-6-fluoro-7-(4-methyl-1-piperazinyl)-1,4-dihydro-4-oxoquinoline-3-carboxylic acid hydrochloride] | 0.625 µg/mL |  | 0.625 µg/mL | 0.625 µg/mL | 0.625 µg/mL | 1.25 µg/mL | 1.25 µg/mL | 0.625 µg/mL | 0.625 µg/mL | 1.25 µg/mL | 5 µg/mL | 2.5 µg/mL | 5 µg/mL | 5 µg/mL | 63400 ng·h/mL | 19600 ng/mL | 1 h | 3.15 h | 28.1% | 39.9% | MIC [1, 24]: 0.625 µg/mL; MIC [3, 25]: 0.25 µg/mL; MIC [4]: 0.625 µg/mL; MIC [8, 26]: 0.313 µg/mL; AUC ([18]; po, P.O): 42200 ng·h/mL; Cmax ([18]; po, P.O): 9180 ng/mL; Tmax ([18]; po, P.O): 0.94 h; bioavailability ([18]; po, P.O): 68.6%; half-life ([18]; po, P.O): 3.44 h; LD50 [19]: > 3000 mg/kg
3 | Cc1c(F)c(N2CCNC(C)C2)cc2c1c(=O)c(C(=O)O)cn2-c1ccc(F)cn1.Cl (stereo not drawn) [Example 29, 5-methyl-7-(3-methyl-1-piperazinyl)-1-(5-fluoro-2-pyridyl)-6-fluoro-1,4-dihydro-4-oxoquinoline-3-carboxylic acid hydrochloride] | 0.625 µg/mL | 0.313 µg/mL |  | 0.625 µg/mL |  | 1.25 µg/mL |  | 0.625 µg/mL | 0.625 µg/mL | 1.25 µg/mL | 5 µg/mL | 5 µg/mL | 10 µg/mL | 10 µg/mL | 32600 ng·h/mL | 8340 ng/mL | 1.25 h | 2.31 h | 9.35% | 12.8% | MIC [1, 24]: 0.625 µg/mL; MIC [3, 25]: 0.313 µg/mL; MIC ([5]; E. coli ATCC25922, 37° C., read-out: Minimum Inhibitory Concentration): 1.25 µg/mL; MIC ([7]; K. pneumoniae ATCC13883, 37° C., read-out: Minimum Inhibitory Concentration): 1.25 µg/mL; MIC [8, 26]: 1.25 µg/mL; MIC [10]: 0.625 µg/mL
